Measurements reported in patent US11576383B2, “Pesticide composition containing thidiazuron and polyglutamic acid” (JIANGSU HUIFENG BIO AGRICULTURE CO., LTD., priority 2017, dated 2023).

What was measured:
Format in all cases: in vivo
[1] = system: Southern corn leaf blight; test: Prevention of Southern corn leaf blight in the maize field comprehensive test; details: 40 a.i. mg/kg
Protocol: (§1) Thidiazuron and polyglutamic acid were diluted with acetone according to a certain concentration and were sprayed to stems and leaves of crops, and influence of concentrations on growth of crops is assayed in the field, including comprehensive evaluation on plant height, spike number, setting percentage, disease-resistant condition, yield condition and the like of the crops. Plant height control rate=(plant height of a clean water control group-processed plant height)/plant height of the clean water control group*100% Spike number increase ratio=(processed plant spike number-plant spike number of a clean water control group)/plant spike number of the clean water control group*100% Setting percentage=filled grain number per spike/total grain number per spike*100% Prevention effect=(disease index of a clean water control group-processed disease index)/disease index of the clean water control group*100% Yield per mu increase ratio=(processed yield per mu-yield per mu of a clean water control group)/yield per mu of the clean water control group*100%
(§2) 1. Field Comprehensive Test of Mixing Thidiazuron and Polyglutamic Acid on Growth Regulation and Disease Resistance and Production Increase of Maize Crops
(§3) Sorghum variety: Suyu 23.
Pesticide application stage: a big horn stage of maize and a blooming stage of maize in which diseases such as Southern corn leaf blight are prone to occur. […]

[2] = system: banded sclerotial blight of indica; test: Disease control of banded sclerotial blight in the indica comprehensive assay; details: 50 a.i. mg/kg
Protocol: (§4) 1. Comprehensive Assay Test of Compounding Thidiazuron and Polyglutamic Acid on Growth Regulation of Indica
as §1

[3] = system: indica; test: Comprehensive assay of compounding thidiazuron and polyglutamic acid on growth regulation of indica (field, stem and leaf spraying); details: 50 a.i. mg/kg
Protocol: as §4, §1

[4] = system: maize; test: Field comprehensive test of mixing thidiazuron and polyglutamic acid on growth regulation and production increase of maize; details: 40 a.i. mg/kg
Protocol: as §1, §2, §3
Pesticide application stage: a big horn stage of maize and a blooming stage of maize in which diseases such as Southern corn leaf blight are prone to occur.
Pesticide application number of times: 2 times, 6 days asan interval. The examples of the preparation of the present invention are sprayed for three repeated times, and the result is the mean value.

## O=C(Nc1ccccc1)Nc1cnns1 [Thidiazuron]
[1]; disease index
  Southern corn leaf blight: 14.74
[1]; Southern corn leaf blight, vs clean water control group
  Prevention Effect: 51.11%
[2]; banded sclerotial blight of indica, vs clean water control group
  Prevention Effect: 49.8%
[2]; indica
  Disease Index of Banded Sclerotial Blight: 14.8
[3]
  Spike Number of Single Plant: 18.1 grains
  Total Grain Number of Spike: 145.7 grains
  filled grain number per spike: 132.2 grains
[3]; filled grain number per spike/total grain number per spike
  Setting Percentage: 90.7%
[3]; stem and leaf spraying 2 times, 8 days interval, investigated at later grouting stage
  Plant Height: 121.2 cm
[3]; vs clean water control group
  Plant Height Control Rate: 5.0%
  Production Increase Ratio (yield per mu increase ratio): 5.5%
  Spike Number Increase Ratio: 4.0%
[3]; yield per mu
  Output: 537.5 667 M^2
[4]
  Stem Diameter: 2.50 cm
  Thousand seed weight: 249.0 g
[4]; applied 2 times, 6 days interval, mean of three repeats
  Plant Height: 129.0 cm
[4]; vs clean water control group
  Control Rate (plant height): 5.4%
  Increase Ratio (output, unit yield per mu): 6.1%
  Increase Ratio (stem diameter): 5.4%
  Increase Ratio (thousand seed weight): 5.4%
[4]; yield per mu
  Output: 637.9 667M^2
